Measured values reported in paper PMC8286831, “Identifying SARS-CoV-2 antiviral compounds by screening for small molecule inhibitors of nsp13 helicase” (Biochemical Journal, 2021).
Where “and” joins values, the source holds several entries; their conditions need not be identical. Equal values may be shown once. Where a name gives a salt, the structure may show the parent alone. Read-outs that look alike come from different tables or passages of the source.

How the values were obtained:
[1] = molecular target: SARS-CoV-2 nsp13 helicase (Severe acute respiratory syndrome coronavirus 2, UniProt P0DTD1); experiment: biochemical; assay type: biochemical; conditions: for nsp13 inhibition and detergent sensitivity: presence or absence of non-ionic detergent
[2] = molecular target: T1, SARS-CoV-2 RdRp holoenzyme (Severe acute respiratory syndrome coronavirus 2, UniProt P0DTD1); experiment: FRET-based RdRp strand displacement assay; assay type: biochemical
T1 construct: (Sf nsp12-3F/7L8 preincubated with Sf 7H8 at a 1:3 ratio); 3F (3xFlag) (C); made in house; host or cells: 'Sf', read as Spodoptera frugiperda insect cells (my inference from the prefix); details are in Bertolin et al

[3] = IC50 0.02% Tween-20 + (presence)
[4] = IC50 0.02% Tween-20 − (absence)
[5] = RNA (nsp13 substrate), 0.3 mM ATP, 0.02% Tween-20 in RdRp assay buffer, read-out: IC50 nsp13
[6] = RNA (RdRp substrate), 0.3 mM each NTP, 0.02% Tween-20 in RdRp assay buffer
[7] = RNA (RdRp substrate), 0.3 mM each NTP, 0.02% Tween-20 in RdRp assay buffer, read-out: IC50 RdRp

In the case of `COc1cc(C(=O)NS(=O)(=O)c2ccccc2C)ccc1Cc1cn(C)c2ccc(NC(=O)OC3CCCC3)cc12` [Zafirlukast], the IC50 [1, 3] is reported as 50 µM, the IC50 [1, 4] is reported as 1.5 µM and the IC50 ([1]; IC50 + 0.01% Triton X-100) is reported as 22 µM. The IC50 ([1]; IC50 + 0.02% Tween-20) was 53 µM and 55 µM, the IC50 ([1]; IC50 -Triton X-100) was 7.4 µM and the IC50 ([1]; IC50 No detergent) was 3.6 µM and 6.6 µM. The IC50 [1, 5] was 48 µM and the IC50 [2] was 46 µM.

Work on `CC(C)c1cc(C(C)C)c(CC(=O)NS(=O)(=O)Oc2c(C(C)C)cccc2C(C)C)c(C(C)C)c1` [Avasimibe] yielded an IC50 [1, 3] of 17 µM, an IC50 [1, 4] of 1.3 µM and an IC50 ([1]; IC50 + 0.02% Tween-20) of 13 µM. The IC50 ([1]; IC50 No detergent) was 4 µM, the IC50 [2] was 18 µM and the “IC50 RdRp” value [2, 6] was “also inhibited RdRp in a similar fashion”.

Compound `CC(C)(C[C@H]1CN(S(=O)(=O)c2cccc(C(F)(F)F)c2)c2cc(-c3cc(F)cc(OC(F)F)c3)ccc2O1)C(=O)O` [Cintirorgon] has an IC50 [1, 3] of 41 µM, an IC50 [1, 4] of 2.1 µM and an IC50 ([1]; IC50 + 0.02% Tween-20) of 38 µM. The IC50 ([1]; IC50 No detergent) was 2.3 µM, the IC50 [1, 5] was 97 µM and the IC50 [2, 7] was 36 µM.

`COc1cc(C(=O)O)ccc1NC(=O)[C@@H]1N[C@@H](CC(C)(C)C)[C@](C#N)(c2ccc(Cl)cc2F)[C@H]1c1cccc(Cl)c1F` [Idasanutlin] showed an IC50 [1, 3] of 11 µM, an IC50 [1, 4] of 2.3 µM and an IC50 [1, 5] of 19 µM. The IC50 [2, 7] was 36 µM.

In the case of `COC(=O)[C@@H]1CC2=CC(=O)CC[C@]2(C)[C@@]23O[C@@H]2C[C@@]2(C)[C@@H](CC[C@@]24CCC(=O)O4)[C@H]13` [Eplerenone], the “IC50 + 0.02% Tween-20” value [1] is reported as “No inhibition” and the IC50 ([1]; IC50 No detergent) is reported as > 250 µM.

With `Cc1cc(OCCCS(C)(=O)=O)cc(C)c1-c1cccc(COc2ccc3c(c2)OC[C@H]3CC(=O)O)c1` [TAK875, Fasiglifam] the IC50 ([1]; IC50 + 0.02% Tween-20) was 72 µM, the IC50 ([1]; IC50 No detergent) was 19 µM and the “nsp13 inhibition and detergent sensitivity” value [1] was “clear inhibition only in the absence of detergent”.

`CCN(CC)C(=O)c1ccc(C2=CC3(CCNCC3)Oc3cccc(O)c32)cc1` [ADL5859] was tested, and the “IC50 + 0.02% Tween-20” value [1] was “No inhibition” and the IC50 ([1]; IC50 No detergent) was > 250 µM.

In the case of `CC1(C)CCC(CN2CCN(c3ccc(C(=O)NS(=O)(=O)c4ccc(NCC5CCOCC5)c([N+](=O)[O-])c4)c(Oc4cnc5[nH]ccc5c4)c3)CC2)=C(c2ccc(Cl)cc2)C1` [Venetoclax/ABT-199, Venetoclax], the IC50 ([1]; IC50 + 0.02% Tween-20) is reported as > 250 µM, the IC50 ([1]; IC50 No detergent) is reported as 25 µM and the “IC50 nsp13” value ([1]; RNA (nsp13 substrate), 0.3 mM ATP, 0.02% Tween-20 in RdRp assay buffer) is reported as “No inhibition”. For the same compound, the “IC50 RdRp” value [2, 6] was “No inhibition”.

For `O=C1c2c(O)ccc(O)c2C(=O)c2c(NCCNCCO)ccc(NCCNCCO)c21` [Mitoxantrone], the “IC50 + 0.02% Tween-20” value [1] was “Quenching” and the “IC50 No detergent” value [1] was “Quenching”.

`CC(C)(Sc1ccc(CCN(CCCCC2CCCCC2)C(=O)NC2CCCCC2)cc1)C(=O)O` [GW7647] gave an IC50 [1, 3] of 25 µM, an IC50 [1, 4] of 2.3 µM and an IC50 ([1]; IC50 + 0.02% Tween-20) of 27 µM. For the same compound, the IC50 ([1]; IC50 No detergent) was 5.9 µM, the IC50 [1, 5] was 39 µM and the IC50 [2, 7] was 32 µM.

With `CO/N=C(\C(=O)N[C@@H]1C(=O)N2C(C(=O)O)=C(CSC(=O)c3ccco3)CS[C@H]12)c1csc(N)n1` [Ceftiofur HCl] the IC50 ([1]; IC50 + 0.02% Tween-20) was > 250 µM and the IC50 ([1]; IC50 No detergent) was > 250 µM.

In the case of `Nc1ncnc2c1ncn2[C@@H]1O[C@H](COP(=O)(O)OP(=O)(O)OP(=O)(O)O)[C@@H](O)[C@H]1O` [ATP], the Km ([1]; 2 nM FH-nsp13, 200 nM DNA substrate, read-out: Km for ATP with the DNA substrate) is reported as 110 µM and the Km ([1]; 3 nM FH-nsp13, 200 nM RNA substrate, read-out: Km for ATP with the RNA substrate) is reported as 130 µM.

With `COc1c2c3c4c(c(OC)c(=O)c5c(O)cc(OC)c(c6c(OC)cc(O)c(c1=O)c63)c54)[C@@H](C(C)=O)[C@@](C)(O)C2` [Hypocrellin A] the IC50 ([1]; IC50 + 0.02% Tween-20) was > 250 µM, the IC50 ([1]; IC50 No detergent) was 12 µM and the “nsp13 inhibition and detergent sensitivity” value [1] was “clear inhibition only in the absence of detergent”.

`Cc1cc(O[C@@H](CCC(F)(F)F)c2ccc(C(=O)NCCC(=O)O)cc2)cc(C)c1-c1ccc(C(C)(C)C)cc1` [Adomeglivant] was tested, and the IC50 ([1]; IC50 + 0.02% Tween-20) was 103 µM, the IC50 ([1]; IC50 No detergent) was 5.3 µM and the IC50 [1, 5] was > 100 µM. For the same compound, the IC50 [2] was 39 µM.

`O=C1/C(=C/c2ccc(O)c(Br)c2)CN(Cc2ccccc2)C/C1=C\c1ccc(O)c(Br)c1` [CARM1-IN-1] was tested, and the IC50 [1, 5] was > 100 µM, the IC50 ([1]; read-out: IC50 + 0.02% Tween-20) was 126 µM and the IC50 ([1]; read-out: IC50 No detergent) was 4.2 µM. The IC50 [2, 7] was > 100 µM.

For `Cc1cc2c(C(C)C)c(O)c(O)c(C=O)c2c(O)c1-c1c(C)cc2c(C(C)C)c(O)c(O)c(C=O)c2c1O` [Gossypol], the IC50 [1, 3] was 31 µM, the IC50 [1, 4] was 1.3 µM and the IC50 ([1]; IC50 + 0.02% Tween-20) was 30 µM. The IC50 ([1]; IC50 No detergent) was 1.9 µM, the IC50 [1, 5] was 26 µM and the IC50 [2] was 17 µM.

For `COc1cccc2c1C(=O)c1c(O)c3c(c(O)c1C2=O)C[C@@](O)(C(=O)CO)C[C@@H]3O[C@H]1C[C@H](N)[C@H](O)[C@H](C)O1` [Doxorubicin], the “IC50 + 0.02% Tween-20” value [1] was “Artifact” and the “IC50 No detergent” value [1] was “Artifact”.

Compound `CC/C=C\C/C=C\C/C=C\C/C=C\C/C=C\CCCC(=O)O` [Eicosapentaenoic acid] has an IC50 ([1]; IC50 + 0.02% Tween-20) of 69 µM, an IC50 ([1]; IC50 No detergent) of 14 µM and an IC50 [1, 5] of 81 µM. It also gave an IC50 [2, 7] of 29 µM.
